# Read-outs that look alike come from different tables or passages of the source. Starred links: 1 amine or outer side, 2 acyl side, 3 side chain; linkers in the order of their positions; H or OH if unused. Positions of bridges follow the written chain, without caps; N, C: chain ends. Non-standard residues stand in square brackets, D forms with d. Residues, ends and D or L forms follow the SMILES beside them. ξ: configuration not given here. *: point of attachment. X1 = O=C(CCOCC(COCCC(=O)NCCOCCOCCOCCOCC1OCC(Nc2cncc(C(F)(F)F)n2)C(O)C1O)NCC(=O)*)NCCOCCOCCOCCOCC1OCC(Nc2cncc(C(F)(F)F)n2)C(O)C1O; ξPro(4ξ-NH2) = O=C(C1CC(N[*:3])CN1[*:1])[*:2]
# Tests used:
# IgG = IgG SPR binding; settings: second table, read-out: IgG KD
# ASGPR = biological target: T1, ASGPR (Homo sapiens, UniProt P07306); assay: ASGPR SPR binding
# T1 construct: biotin (biotinylated)
# T1 sequence (P07306 1-291): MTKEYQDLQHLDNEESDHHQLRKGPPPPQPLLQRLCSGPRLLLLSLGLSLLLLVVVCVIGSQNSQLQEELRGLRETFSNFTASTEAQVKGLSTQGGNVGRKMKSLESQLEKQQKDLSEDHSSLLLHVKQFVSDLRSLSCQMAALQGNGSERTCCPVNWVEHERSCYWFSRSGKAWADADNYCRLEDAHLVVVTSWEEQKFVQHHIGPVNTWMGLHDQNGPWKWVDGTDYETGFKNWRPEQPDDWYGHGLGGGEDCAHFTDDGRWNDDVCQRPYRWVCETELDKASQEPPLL
# [1] = biological target: T2, ASGPR receptor on HepG2 cells (ternary complex with AF488-labeled antibody) (Homo sapiens, UniProt P07306); assay: Ternary complex formation assay (flow cytometry, cell-associated AF488 fluorescence); assay type: cell-based
# T2 construct: host or cells: HepG2
# T2 sequence (P07306 1-291): T1 sequence (P07306 1-291)
# T2 sequence (P07307 1-311 partner): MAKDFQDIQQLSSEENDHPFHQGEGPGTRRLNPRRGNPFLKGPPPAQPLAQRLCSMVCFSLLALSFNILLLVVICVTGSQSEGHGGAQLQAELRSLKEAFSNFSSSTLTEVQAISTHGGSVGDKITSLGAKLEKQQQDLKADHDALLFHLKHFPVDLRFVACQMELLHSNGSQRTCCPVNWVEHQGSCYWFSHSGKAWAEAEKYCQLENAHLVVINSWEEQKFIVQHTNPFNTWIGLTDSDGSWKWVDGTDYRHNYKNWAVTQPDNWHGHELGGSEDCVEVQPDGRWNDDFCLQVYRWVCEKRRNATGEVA
# Protocol: Human IgG (Sigma-Aldrich, 14506) was covalently labeled with Alexa Fluor 488 using the Alexa Fluor™ 488 Protein Labeling Kit (Thermo Fisher, A10235) following the manufacturer's instructions. HepG2 cells (ATCC, HB-8065) were cultured to about 70% confluence and harvested by trypsinization. Single cell suspensions of HepG2 cells were plated in 96 well plates at 1×10^5 cells/well in cell culture media (DMEM supplemented with 10% FBS) and placed at 4° C. For studies using human IgG, cells were incubated with 100 nM AF488-labeled anti-human IgG and serial dilutions of IgG-based degrader for 1 hour at 4° C. For studies using DNP, cells were incubated with 100 nM AF488-labeled polyclonal rabbit anti-dinitrophenyl (DNP) antibodies (ThermoFisher) and serial dilutions of DNP-based degrader for 1 hour at 4° C. After washing once with ice-cold PBS containing 0.1% BSA and 0.1% sodium azide, cells were resuspended in 150 uL PBS+0.1% BSA and cell-associated AF488 fluorescence was measured by flow cytometry using the iQue® Screener PLUS Flow Cytometer (IntelliCyt). […]
# [2] = second table, read-out: ASGPR KD
# [3] = read-out: TCF EC50, 100 nM AF488-labeled antibody, 1 hour at 4° C., the 25th table, class symbols
# [4] = read-out: ASGPR KD, second table
Compound,Kd (IgG) [µM],Kd (ASGPR; [2]) [µM],"EC50 [1, 3] [nM]",Kd (ASGPR; [4]) [µM],"EC50 ([1]; read-out: TCF EC50, 100 nM AF488-labeled antibody, 1 hour at 4° C., the 25th table, numeric bounds, nM from footnote) [nM]"
CC(C)CC1NC(=O)C(Cc2cnc[nH]2)NC(=O)C(Cc2c[nH]c3ccccc23)NC(=O)C(C)NC(=O)C2CSSCC(NC(=O)C(Cc3c[nH]c4ccccc34)NC(=O)C(C(C)C)NC(=O)C(CC(C)C)NC(=O)C(CCC(=O)O)NC(=O)CNC1=O)C(=O)NC(C(C)O)C(=O)N1CCCC1C(=O)N1CC(NC(=O)CC(=O)NCC3OCC(Nc4cncc(C(F)(F)F)n4)C(O)C3O)CC1C(=O)NC(CC(=O)O)C(=O)N2 (stereo not drawn) [compound 38],< 0.1,< 0.1,< 100,–,–
CC(C)CC1NC(=O)C(Cc2cnc[nH]2)NC(=O)C(Cc2c[nH]c3ccccc23)NC(=O)C(C)NC(=O)C2CSSCC(NC(=O)C(Cc3c[nH]c4ccccc34)NC(=O)C(C(C)C)NC(=O)C(CC(C)C)NC(=O)C(CCC(=O)O)NC(=O)CNC1=O)C(=O)NC(C(C)O)C(=O)N1CCCC1C(=O)N1CC(NC(=O)CCN3CCN(CC(=O)NCC4OCC(Nc5cncc(C(F)(F)F)n5)C(O)C4O)CC3)CC1C(=O)NC(CC(=O)O)C(=O)N2 (stereo not drawn) [compound 39],< 0.1,< 0.1,< 100,–,–
CC(C)CC1NC(=O)C(Cc2cnc[nH]2)NC(=O)C(Cc2c[nH]c3ccccc23)NC(=O)C(C)NC(=O)C2CSSCC(NC(=O)C(Cc3c[nH]c4ccccc34)NC(=O)C(C(C)C)NC(=O)C(CC(C)C)NC(=O)C(CCC(=O)O)NC(=O)CNC1=O)C(=O)NC(C(C)O)C(=O)N1CCCC1C(=O)N1CC(NC(=O)CNC(COCCC(=O)NCC3OCC(Nc4cncc(C(F)(F)F)n4)C(O)C3O)COCCC(=O)NCC3OCC(Nc4cncc(C(F)(F)F)n4)C(O)C3O)CC1C(=O)NC(CC(=O)O)C(=O)N2 (stereo not drawn) [compound 41],< 0.1,–,< 100,< 0.1,–
CC(C)CC1NC(=O)C(Cc2cnc[nH]2)NC(=O)C(Cc2c[nH]c3ccccc23)NC(=O)C(C)NC(=O)C2CSSCC(NC(=O)C(Cc3c[nH]c4ccccc34)NC(=O)C(C(C)C)NC(=O)C(CC(C)C)NC(=O)C(CCC(=O)O)NC(=O)CNC1=O)C(=O)NC(C(C)O)C(=O)N1CCCC1C(=O)N1CC(NC(=O)c3ccc(N4CCC(CN5CCN(CC6OCC(Nc7cncc(C(F)(F)F)n7)C(O)C6O)CC5)CC4)nn3)CC1C(=O)NC(CC(=O)O)C(=O)N2 (stereo not drawn) [compound 42],< 0.1,< 0.1,< 100,–,–
CC(C)CC1NC(=O)C(Cc2cnc[nH]2)NC(=O)C(Cc2c[nH]c3ccccc23)NC(=O)C(C)NC(=O)C2CSSCC(NC(=O)C(Cc3c[nH]c4ccccc34)NC(=O)C(C(C)C)NC(=O)C(CC(C)C)NC(=O)C(CCC(=O)O)NC(=O)CNC1=O)C(=O)NC(C(C)O)C(=O)N1CCCC1C(=O)N1CC(NC(=O)c3ccc(C(=O)NCC4OCC(Nc5cncc(C(F)(F)F)n5)C(O)C4O)cc3)CC1C(=O)NC(CC(=O)O)C(=O)N2 (stereo not drawn) [compound 43],< 0.1,< 0.1,> 1000,–,–
CC(C)CC1NC(=O)C(Cc2cnc[nH]2)NC(=O)C(Cc2c[nH]c3ccccc23)NC(=O)C(C)NC(=O)C2CSSCC(NC(=O)C(Cc3c[nH]c4ccccc34)NC(=O)C(C(C)C)NC(=O)C(CC(C)C)NC(=O)C(CCC(=O)O)NC(=O)CNC1=O)C(=O)NC(C(C)O)C(=O)N1CCCC1C(=O)N1CC(NC(=O)c3ccc(N4CCC(CN5CCN(CC6OCC(Nc7cncc(C(F)(F)F)n7)C(O)C6O)CC5)CC4)cc3)CC1C(=O)NC(CC(=O)O)C(=O)N2 (stereo not drawn) [compound 44],< 0.1,< 0.1,< 100,–,–
CC(C)CC1NC(=O)C(Cc2cnc[nH]2)NC(=O)C(Cc2c[nH]c3ccccc23)NC(=O)C(C)NC(=O)C2CSSCC(NC(=O)C(Cc3c[nH]c4ccccc34)NC(=O)C(C(C)C)NC(=O)C(CC(C)C)NC(=O)C(CCC(=O)O)NC(=O)CNC1=O)C(=O)NC(C(C)O)C(=O)N1CCCC1C(=O)N1CC(NC(=O)C3CCC(C(=O)NCC4OCC(Nc5cncc(C(F)(F)F)n5)C(O)C4O)CC3)CC1C(=O)NC(CC(=O)O)C(=O)N2 (stereo not drawn) [compound 45],< 0.1,0.1 to 0.5,> 1000,–,–
CC(C)CC1NC(=O)C(Cc2cnc[nH]2)NC(=O)C(Cc2c[nH]c3ccccc23)NC(=O)C(C)NC(=O)C2CSSCC(NC(=O)C(Cc3c[nH]c4ccccc34)NC(=O)C(C(C)C)NC(=O)C(CC(C)C)NC(=O)C(CCC(=O)O)NC(=O)CNC1=O)C(=O)NC(C(C)O)C(=O)N1CCCC1C(=O)N1CC(NC(=O)CNC(COCCC(=O)NCCOCCOCCOCCOCC3OCC(Nc4cncc(C(F)(F)F)n4)C(O)C3O)COCCC(=O)NCCOCCOCCOCCOCC3OCC(Nc4cncc(C(F)(F)F)n4)C(O)C3O)CC1C(=O)NC(CC(=O)O)C(=O)N2 (stereo not drawn) [compound 46],< 0.1,–,< 100,< 0.1,–
CC(C)CC1NC(=O)C(Cc2cnc[nH]2)NC(=O)C(Cc2c[nH]c3ccccc23)NC(=O)C(C)NC(=O)C2CSSCC(NC(=O)C(Cc3c[nH]c4ccccc34)NC(=O)C(C(C)C)NC(=O)C(CC(C)C)NC(=O)C(CCC(=O)O)NC(=O)CNC1=O)C(=O)NC(C(C)O)C(=O)N1CCCC1C(=O)N1CC(NC(=O)c3ccc(-c4ccc(C(=O)NCC5OCC(Nc6cncc(C(F)(F)F)n6)C(O)C5O)cc4)cc3)CC1C(=O)NC(CC(=O)O)C(=O)N2 (stereo not drawn) [compound 49],< 0.1,< 0.1,–,–,> 686
CC(C)CC1NC(=O)C(Cc2cnc[nH]2)NC(=O)C(Cc2c[nH]c3ccccc23)NC(=O)C(C)NC(=O)C2CSSCC(NC(=O)C(Cc3c[nH]c4ccccc34)NC(=O)C(C(C)C)NC(=O)C(CC(C)C)NC(=O)C(CCC(=O)O)NC(=O)CNC1=O)C(=O)NC(C(C)O)C(=O)N1CCCC1C(=O)N1CC(NC(=O)COCCOCC(=O)NCC3OCC(Nc4cncc(C(F)(F)F)n4)C(O)C3O)CC1C(=O)NC(CC(=O)O)C(=O)N2 (stereo not drawn) [compound 50],< 0.1,< 0.1,< 100,–,–
CC(C)CC1NC(=O)C(Cc2cnc[nH]2)NC(=O)C(Cc2c[nH]c3ccccc23)NC(=O)C(C)NC(=O)C2CSSCC(NC(=O)C(Cc3c[nH]c4ccccc34)NC(=O)C(C(C)C)NC(=O)C(CC(C)C)NC(=O)C(CCC(=O)N(C)C)NC(=O)CNC1=O)C(=O)NC(C(C)O)C(=O)N1CCCC1C(=O)N1CC(NC(=O)CNC(COCCC(=O)NCCOCCOCCOCCOCC3OCC(Nc4cncc(C(F)(F)F)n4)C(O)C3O)COCCC(=O)NCCOCCOCCOCCOCC3OCC(Nc4cncc(C(F)(F)F)n4)C(O)C3O)CC1C(=O)NC(CC(=O)O)C(=O)N2 (stereo not drawn) [compound 53],< 0.1,–,< 100,< 0.1,–
CC(C)CC1NC(=O)C(C)NC(=O)CNC(=O)C(CC(C)C)NC(=O)C(Cc2cnc[nH]2)NC(=O)C(Cc2c[nH]c3ccccc23)NC(=O)C(C)NC(=O)C2CSSCC(NC(=O)C(Cc3c[nH]c4ccccc34)NC(=O)C(C(C)C)NC1=O)C(=O)NC(C(C)O)C(=O)N1CCCC1C(=O)N1CC(NC(=O)CNC(COCCC(=O)NCCOCCOCCOCCOCC3OCC(Nc4cncc(C(F)(F)F)n4)C(O)C3O)COCCC(=O)NCCOCCOCCOCCOCC3OCC(Nc4cncc(C(F)(F)F)n4)C(O)C3O)CC1C(=O)NC(C)C(=O)N2 (stereo not drawn) [compound 71] (cyclo(GALVWCTP[ξPro(4ξ-NH2)](X1)ACAWHL); disulfide 6-11; configuration not given here),< 0.1,–,< 100,< 0.1,–
CC(C)CC1NC(=O)C(Cc2cnc[nH]2)NC(=O)C(Cc2c[nH]c3ccccc23)NC(=O)C(C)NC(=O)C2CSSCC(NC(=O)C(Cc3c[nH]c4ccccc34)NC(=O)C(C(C)C)NC(=O)C(CC(C)C)NC(=O)C(CCC(=O)N(C)C)NC(=O)CNC1=O)C(=O)NC(C(C)O)C(=O)N1CCCC1C(=O)N1CC(NC(=O)CNC(COCCC(=O)NCCOCCOCCOCCOCC3OCC(Nc4cncc(C(F)(F)F)n4)C(O)C3O)COCCC(=O)NCCOCCOCCOCCOCC3OCC(Nc4cncc(C(F)(F)F)n4)C(O)C3O)CC1C(=O)NC(C)C(=O)N2 (stereo not drawn) [compound 72] (cyclo(GE(NMe2)LVWCTP[ξPro(4ξ-NH2)](X1)ACAWHL); disulfide 6-11; configuration not given here),< 0.1,–,< 100,< 0.1,–

# From patent US20260083851A1 (AVILAR THERAPEUTICS, INC., priority 2022, published 2026)
